{"source": "patent US10743813B2", "about": "“Diabetes control using postprandial feedback” (priority 2014, dated 2020)", "key": {"subject with T2D [1]": {"system": "subject with T2D", "assay": "Blood glucose response to postprandial exercise", "format": "in vivo, human", "experimental": "The patient of Example 1 was encouraged to track glucose levels, including postprandial glucose levels, to observe the effect of postprandial exercise and lifestyle changes. To control triglyceridemia they also started over the counter orlistat at a 60 mg dose daily with a daily multi-vitamin supplement and an additional vitamin D supplement. They had discontinued metformin and statins. Instead close monitoring of blood glucose levels was undertaken.\nIn Example 2, when using orlistat at 60 mg daily, the patient noticed that blood glucose levels reduced to a level of about 90 to 100 mg/dL, which is in the normal range, after a modest meal with a brisk walk after eating. The blood glucose levels stayed below 100 mg/dL for several hours. […] Effectively exercise is contraindicated in standard of care treatments for T2D due to the use of medications that can drive the glucose levels too low.\nA subject with T2D with fasting glucose levels of over 140 mg/dL was treated with 60 mg Orlistat. The subject undertook exercise in a postprandial state within about an hour and a half after eating. […]\nThe subject with T2D was treated with Pioglitazone 15 mg and postprandial exercise but no Exercise Sensitizer or SGLT2 inhibitor. Over twenty minutes of postprandial exercise glucose readings were taken every 5 minutes for fifteen minutes. […]\nThe subject with T2D was treated with Exercise Sensitizer Colestipol (1 gm dose) and postprandial exercise. Over twenty minutes of postprandial exercise glucose readings were taken every 5 minutes for fifteen minutes. […]\nThe subject with T2D was treated with Exercise Sensitizer Colestipol (1 gm) before each meal and with 60 mg. of Exercise Sensitizer Orlistat and 100 mg. of Canagliflozin daily. […] Over twenty minutes of postprandial exercise on an elliptical trainer at a resistance setting of 6, glucose readings dropped to about 81 to 84 mg/dL. […]"}, "subject with T2D [2]": {"system": "subject with T2D", "assay": "Blood glucose response to exercise in a fasting state", "format": "in vivo, human", "settings": "60 mg Orlistat; over fifteen to thirty minutes", "experimental": "A subject with T2D with starting fasting glucose level of about 140 mg/dL to 160 mg/dL and HbA1c of about 8 was treated with Orlistat. In one aspect, the subject with T2D was treated with 60 mg Orlistat and exercised in a fasting state. […] Although not intending to be bound by theory, one factor may be the natural inhibition of gluconeogenesis in the postprandial state. In addition, the release of fatty acids or lack thereof may affect the release of cholecystokinin and other downstream effects and thus account for the synergy between the postprandial state and the Exercise Sensitizers."}, "subject with T2D [3]": {"system": "subject with T2D", "assay": "Three month treatment with postprandial exercise: fasting glucose, HbA1c, triglycerides, BMI", "format": "in vivo, human", "settings": "postprandial exercise with orlistat; from over 500 mg/dL", "experimental": "Over three months to speed up the slow progress the subject with T2D with fasting glucose level of about 140 mg/dL and HbA1c of about 7.5 or above was treated with Orlistat at the lowest marketed dose of 60 mg and the lowest dose for either Canafliglozin (100 mg) and Dapagliflozin (5 mg). Postprandial exercise with orlistat reduced triglycerides to about 260 mg/dL from over 500 mg/dL.\nAn invasive glucose testing meter was used to simulate a post-prandial invasive/noninvasive glucose monitoring device. Specifically a combination of orlistat and a SGLT2 inhibitor (Canafliglozin and Dapagliflozin) was administered. Treatment with orlistat (60 mg) daily alone with […]\nThe fasting glucose levels changed and continued to decrease overall over the three months.\nThe fasting glucose levels were obtained using a portable glucose meter while the fasting glucose (again to check the meter and strip accuracy) and HbA1c were determined using laboratory tests that included a lipid panel. […] Also the subject could not be fully compliant—many meals were not followed by exercise. The treatment with Exercise Sensitizer and SGLT2 inhibitor was adhered to strictly. Still, the triglyceride levels dropped to 260 and eventually to about 220 from about 500. […]"}, "[4]": {"system": "Adults with Type 2 Diabetes Mellitus", "settings": "starting HbA1c below 8; 300 mg/day; as long as 52 weeks; cited from earlier work"}}, "data": [{"smiles": "CCc1ccc(CCOc2ccc(CC3SC(=O)NC3=O)cc2)nc1", "note": "(stereo not drawn) [Pioglitazone]", "values": [{"measurement": "blood glucose level during postprandial exercise", "setting": "subject with T2D [1]; Pioglitazone 15 mg, at about ten minutes, then leveled off, from about 175 mg/dL", "value": "about 103 mg/dL"}]}, {"smiles": "CCCCCCCCCCC[C@@H](C[C@@H]1OC(=O)[C@H]1CCCCCC)OC(=O)[C@H](CC(C)C)NC=O", "note": "[Orlistat, (S)—((S)-1-((2S,3S)-3-Hexyl-4-oxooxetan-2-yl)tridecan-2-yl) 2-formamido-4-methylpentanoate]", "values": [{"measurement": "blood/plasma glucose level after postprandial exercise", "setting": "subject with T2D [1]; 60 mg Orlistat, exercise within about an hour and a half after eating, fasting glucose over 140 mg/dL", "value": "dropped sharply to the normal range"}, {"measurement": "blood glucose level for several hours after the postprandial walk", "setting": "subject with T2D [1]; orlistat 60 mg daily, several hours", "value": "below 100 mg/dL"}, {"measurement": "blood/plasma glucose level on exercise in a fasting state", "setting": "subject with T2D [2]", "value": "increased or remained steady in the high range"}, {"measurement": "triglycerides", "setting": "subject with T2D [3]", "value": "about 260 mg/dL"}]}, {"smiles": "Cc1ccc([C@@H]2O[C@H](CO)[C@@H](O)[C@H](O)[C@H]2O)cc1Cc1ccc(-c2ccc(F)cc2)s1", "note": "[Canagliflozin, (2S,3R,4R,5S,6R)-2-{3-[5-[4-Fluoro-phenyl)-thiophen-2-ylmethyl]-4-methyl-phenyl}-6-hydroxymethyl-tetrahydro-pyran-3,4,5-triol]", "values": [{"measurement": "improvement in HbA1c", "setting": "[4]", "value": "less than 0.8"}]}]}
